By Ki is commonly meant a measure of affinity in units of concentration, obtained from inhibition or displacement. A lower Ki goes with tighter binding.

SMILES strings stand for the structures.

This test is described as follows: Binding affinity towards Acetylcholinesterase.

Regarding `CC(C)[C@H](NC(=O)[C@@H]1CCCN1C(=O)[C@@H](NC(=O)c1ccc(C(=O)NS(=O)(=O)c2ccc(Cl)cc2)cc1)C(C)C)C(=O)c1nc2cc(C(N)=O)ccc2o1` [2-{(S)-2-[((S)-1-{(S)-2-[4-(4-Chloro-benzenesulfonylaminocarbonyl)-benzoylamino]-3-methyl-butyryl}-pyrrolidine-2-carbonyl)-amino]-3-methyl-butyryl}-benzooxazole-5-carboxylic acid amide], the Ki is above 2000 µM.

The record behind these values is BindingDB's records for doi:10.1021/jm00020a011 (Zeneca Pharmaceuticals, 1995).
